The text below walks through data of patent US9045563B2, “CXC chemokine receptor 4 (CXCR4) antagonistic polypeptide” (priority 2007, dated 2015).

The nature of data set [1]: Isoelectric point of the peptide. Type of data set: physicochemical.
The next data set relates to X4 tropic HIV-1 NL4-3. Briefly: X4 tropic HIV-1 infection and replication in PBMC, p24 antigen ELISA. Type of data set: cell-based. The following applies: 100 μM peptide, day 6 post infection. Here is the method: To analyze the effect of ALB408-423 and derivatives thereof in relevant primary cells, peripheral blood mononuclear cells were isolated from Buffy coat derived from the DRK-Blutspendedienst Baden-Württemberg-Hessen using Ficoll density centrifugation. 1×10^6 PBMC per ml were stimulated with 1 μg/ml phytohemagglutinine (PHA, Oxoid, #3085280) and 10 ng/ml Interleukin 2 (IL-2, Strathmann, #9511192) for three days. Thereafter cells were pelleted and resuspended in IL-2 containing medium. 1.5×10^5 PBMC (250 μl) were seeded in 96 well dishes, peptides were added and cells were infected with […] p24 antigen of X4 tropic HIV-1 NL4-3. Supernatants containing progeny virus were taken at day 1, 3 and 6 post infection. Virus production was measured by p24 antigen ELISA (SAIC-Frederick, Inc [AIDS & Cancer virus program]). […] In the presence of 20 μM peptides virus replication was severely impaired.
FIG. 11. ALB408-423 and derivatives inhibit X4 tropic HIV-1 infection of peripheral blood mononuclear cells (PBMC). Cells were incubated with indicated concentrations of ALB408-423 or truncated variants and infected with X4 tropic HIV-1. Supernatants obtained after 6 days were analyzed by p24 ELISA. Shown are mean p24 antigen values (ng/ml) derived from triplicate infections±standard deviation.

A further data set concerns the target T1, CCR5 (Homo sapiens, UniProt P51681).
T1 construct: expressed in transfected cells; host or cells: HEK293
The data set can be described thus: Ca2+ mobilization in HEK CCR5 cells (indo-1). Format: cell-based. Conditions: 50 μM peptide. Here is the method: Ca^2+ responses were recorded.
FIG. 17. CXCR4 antagonistic activities of ALB derivatives. […] CXCR4 or CCR5 expressing HEK293 cells were treated with CXCR4 agonist CXCL12 (10 nM) or CCR5 agonist CCL5 (20 nM), respectively, in the absence (no ALB) or presence of indicated ALB derivatives (50 μM). Calcium responses were recorded as described. Data shown are mean values±standard deviation derived from duplicates relative to peak calcium responses after treatment with agonists only (100%). […] CXCR4 expressing HEK293 cells were treated with Texas Red labeled CXCL12 (CXCL12-Tr) in the presence or absence of ALB peptides. Real-time fluorescence monitoring of ligand-receptor interactions was carried out as described. Shown are bound CXCL12-Tr levels in the presence of ALB peptides relative to CXCL12-Tr only treated cells (100% bound). Values were derived from a duplicate experiment.
(Calcium flux is commonly read through the fluorescence of an indicator in the cells.)

In a further data set the target is CXCR4 (Homo sapiens, UniProt P61073). The data set can be described thus: CXCR4 internalization, confocal microscopy of HEK cells expressing EGFP-CXCR4. Type of data set: cell-based. The following applies: 30 min, 37° C. More on the design: expressed in transfected cells; host or cells: HEK293. The source says:
Upon stimulation with the appropriate chemokine, numerous G-protein-coupled receptors get internalized by clathrin-coated pits. As an antagonist of CXCR4 responses, ALB 408-423 may also alter chemokine induced CXCR4 receptor internalization. To analyze the antagonistic properties of ALB408-423 on CXCL12 mediated CXCR4 internalization, EGFP-CXCR4 receptor expressing cells were split and grown for 2 days in 24-well plates on 12-mm glass coverslips coated with rat type I collagen. The cells were then incubated for periods ranging from 0 to 30 min in HEPES-BSA buffer supplemented with protease inhibitors containing either 100 nM CXCL12 or 50 μM of ALB408-423 or 100 nM CXCL12 plus 50 μM of ALB408-423 at 37° C. […] Cells were then analyzed with an inverted microscope (LEICA) and a laser scanning confocal imaging system (LEICA AOBS SP2 MP) using a HCX PL APO 1bd.BL 63X 1.40 OIL UV objective (n° 506192). […] EGFP was excited with the 488 nm laser-line of the Argon laser and detected and amplified by one photomultiplier tube (PMT) in the so-called mCFP Channel from 495 to 550 nm (PMT1 610 High Voltage -HV-, offset 0). […]
FIG. 15. […] Receptor endocytosis was monitored on HEK cells expressing EGFP-CXCR4 and analyzed by confocal microscopy immediately (0 min, upper panel) after addition of CXCL12, ALB408-423 or both compounds, or 30 min later (lower panel). […]

In data set [2] the test system is CCR5 tropic HIV-1 NL4-3 92th014, HIV-1-7312 and SIVmac239. Briefly: Infection of TZM-bl cells by R5 tropic lentiviruses. Format: cell-based, SIV.

Ends that are not written are not given here.

Chain of CXCR4 (P61073 whole entry): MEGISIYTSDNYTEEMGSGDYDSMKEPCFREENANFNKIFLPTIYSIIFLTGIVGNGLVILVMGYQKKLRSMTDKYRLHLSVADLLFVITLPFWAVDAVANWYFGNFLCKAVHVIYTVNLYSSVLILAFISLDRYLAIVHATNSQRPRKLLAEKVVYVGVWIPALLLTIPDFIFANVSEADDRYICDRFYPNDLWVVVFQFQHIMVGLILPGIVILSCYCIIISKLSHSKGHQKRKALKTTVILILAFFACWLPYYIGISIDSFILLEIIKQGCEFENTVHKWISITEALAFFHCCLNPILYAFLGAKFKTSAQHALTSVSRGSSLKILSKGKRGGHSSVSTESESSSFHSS
T1 sequence (P51681 whole entry): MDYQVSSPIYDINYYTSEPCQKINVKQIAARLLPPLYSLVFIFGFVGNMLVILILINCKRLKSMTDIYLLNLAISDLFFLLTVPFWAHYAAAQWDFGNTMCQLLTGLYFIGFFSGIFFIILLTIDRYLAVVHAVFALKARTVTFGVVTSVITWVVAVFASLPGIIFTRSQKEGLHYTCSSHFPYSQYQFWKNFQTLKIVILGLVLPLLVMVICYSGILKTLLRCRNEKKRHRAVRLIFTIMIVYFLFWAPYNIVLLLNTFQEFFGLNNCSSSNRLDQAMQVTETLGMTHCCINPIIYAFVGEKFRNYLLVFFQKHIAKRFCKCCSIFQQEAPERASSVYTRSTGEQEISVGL

On to “LVRYTKKVPQVSTPTL [ALB408-423, LVRYTKKVPQVSTPTL]”, for which, in data set [1], the “isoelectric point (pI)” value was found to be 10.3. In the data set on X4 tropic HIV-1 NL4-3, the “p24 antigen in supernatants” value was “No p24 antigen could be detected”. For the same sequence, the “effect on CCL5-evoked calcium responses” value on CCR5 (HEK CCR5 cells) is listed as “no effect”. Further, the “agonism: calcium response induced by the peptide alone, CCR5” value at CCR5 (no chemokine) is “does not induce any calcium response”. Besides, the “effect on CXCL12 mediated CXCR4 internalization” value on CXCR4 (100 nM CXCL12 plus 50 μM peptide) is given as “blocked CXCL12 mediated CXCR4 internalization”. In addition, the “CXCR4 internalization by the peptide alone” value at CXCR4 (50 μM) is reported as “did not induce internalization of the receptor”. For the same sequence, in data set [2], the “effect on R5 tropic lentiviral infection” value is reported as “no effect”.
